In patent US11752138B2 (VANDERBILT UNIVERSITY, priority 2020, dated 2023):
pIC50: −log10 of the molar value.

Biological target: Human LDHA (Homo sapiens (Human), UniProt P00338)
Assay: human LDHA primary biochemical assay (Example 1)
Conditions: biochemical LDHA inhibitory activity, assay of Example 1
Source text: This example describes a human LDHA primary biochemical assay employed in the characterization of a compound of Formula I in an embodiment of the dislcosure.
Test compounds were placed in a Greiner Bio-One (Monroe, N.C.) 1536-well black solid bottom assay plate. 200 millimolar (mM) Tris HCl, pH 7.4, 100 micromolar (μM) EDTA and 0.01% TWEEN-20™, final concentration, was used as the assay buffer. The LDHA reagent was 2 nanomolar (nM) Human LDHA (Meridian Life Science, Inc., Memphis, Tenn.), final concentration, in assay buffer. The substrate reagent was 0.06 mM NADH and 0.2 mM sodium pyruvate, final concentration, in assay buffer. The resazurin/diaphorase coupling reagent was 0.037 mM resazurin and 0.133 milligrams per milliliter (mg/mL) diaphorase, final concentration, in assay buffer. The inhibition of LDHA activity was measured by fluorescence emission. […]

pIC50	Structure (SMILES)
> 7.00	Cc1cc(-c2cc(-c3nn(-c4nc(C(=O)O)cs4)c(CC4CC4)c3Cc3ccc(S(N)(=O)=O)c(F)c3)ccc2F)ccc1F [Compound 195, 2-(5-(cyclopropylmethyl)-3-(4′,6-difluoro-3′-methyl-[1,1′-biphenyl]-3-yl)-4-(3-fluoro-4-sulfamoylbenzyl)-1H-pyrazol-1-yl)thiazole-4-carboxylic acid]
> 7.00	NS(=O)(=O)c1ccc(Cc2c(-c3ccc(F)c(C4=CCCO4)c3)nn(-c3nc(C(=O)O)cs3)c2CC2CC2)cc1F [Compound 197, 2-(5-(cyclopropylmethyl)-3-(3-(4,5-dihydrofuran-2-yl)-4-fluorophenyl)-4-(3-fluoro-4-sulfamoylbenzyl)-1H-pyrazol-1-yl)thiazole-4-carboxylic acid]
> 7.00	N#Cc1cccc(-c2cc(-c3nn(-c4nc(C(=O)O)cs4)c(CC4CC4)c3Cc3ccc(S(N)(=O)=O)c(F)c3)ccc2F)c1 [Compound 200, 2-(3-(3′-cyano-6-fluoro-[1,1′-biphenyl]-3-yl)-5-(cyclopropylmethyl)-4-(3-fluoro-4-sulfamoylbenzyl)-1H-pyrazol-1-yl)thiazole-4-carboxylic acid]
> 7.00	N#Cc1ccc(-c2cc(-c3nn(-c4nc(C(=O)O)cs4)c(CC4CC4)c3Cc3ccc(S(N)(=O)=O)c(F)c3)ccc2F)cc1 [Compound 201, 2-(3-(4′-cyano-6-fluoro-[1,1′-biphenyl]-3-yl)-5-(cyclopropylmethyl)-4-(3-fluoro-4-sulfamoylbenzyl)-1H-pyrazol-1-yl)thiazole-4-carboxylic acid]
> 7.00	NS(=O)(=O)c1ccc(Cc2c(-c3ccc(F)c(N4CCCC4=O)c3)nn(-c3nc(C(=O)O)cs3)c2CC2CC2)cc1F [Compound 202, 2-(5-(cyclopropylmethyl)-3-(4-fluoro-3-(2-oxopyrrolidin-1-yl)phenyl)-4-(3-fluoro-4-sulfamoylbenzyl)-1H-pyrazol-1-yl)thiazole-4-carboxylic acid]
> 7.00	Cc1ccc(-c2cccc(-c3nn(-c4nc(C(=O)O)cs4)c(CC4CC4)c3Cc3ccc(S(N)(=O)=O)c(F)c3)c2)nc1 [Compound 203, 2-(5-(cyclopropylmethyl)-4-(3-fluoro-4-sulfamoylbenzyl)-3-(3-(5-methylpyridin-2-yl)phenyl)-1H-pyrazol-1-yl)thiazole-4-carboxylic acid]
> 7.00	Cc1ccc(-c2cccc(-c3nn(-c4nc(C(=O)O)cs4)c(CC4CC4)c3Cc3ccc(S(N)(=O)=O)c(F)c3)c2)cn1 [Compound 204, 2-(5-(cyclopropylmethyl)-4-(3-fluoro-4-sulfamoylbenzyl)-3-(3-(6-methylpyridin-3-yl)phenyl)-1H-pyrazol-1-yl)thiazole-4-carboxylic acid]
> 7.00	CC(C)c1ccc(-c2cncc(-c3nn(-c4nc(C(=O)O)cs4)c(CC4CC4)c3Cc3ccc(S(N)(=O)=O)c(F)c3)c2)cc1 [Compound 210, 2-[5-(cyclopropylmethyl)-4-[(3-fluoro-4-sulfamoylphenyl)methyl]-3-[5-(4-isopropylphenyl)pyridin-3-yl]pyrazol-1-yl]-1,3-thiazole-4-carboxylic acid]
> 7.00	Cc1cc(-c2cc(-c3nn(-c4nc(C(=O)O)cs4)c(CC4CC4)c3Cc3ccc(S(N)(=O)=O)c(F)c3)ccc2F)ccc1C(C)C [Compound 213, 2-[5-(cyclopropylmethyl)-3-[4-fluoro-3-(4-isopropyl-3-methylphenyl)phenyl]-4-[(3-fluoro-4-sulfamoylphenyl)methyl]pyrazol-1-yl]-1,3-thiazole-4-carboxylic acid]
> 7.00	Cc1ncc(-c2cccc(-c3nn(-c4nc(C(=O)O)cs4)c(CC4CC4)c3Cc3ccc(S(N)(=O)=O)c(F)c3)c2)cn1 [Compound 214, 2-[5-(cyclopropylmethyl)-4-[(3-fluoro-4-sulfamoylphenyl)methyl]-3-[3-(2-methylpyrimidin-5-yl)phenyl]pyrazol-1-yl]-1,3-thiazole-4-carboxylic acid]
> 7.00	CC(C)c1cnc(-c2cccc(-c3nn(-c4nc(C(=O)O)cs4)c(CC4CC4)c3Cc3ccc(S(N)(=O)=O)c(F)c3)c2)s1 [Compound 215, 2-[5-(cyclopropylmethyl)-4-[(3-fluoro-4-sulfamoylphenyl)methyl]-3-[3-(5-isopropyl-1,3-thiazol-2-yl)phenyl]pyrazol-1-yl]-1,3-thiazole-4-carboxylic acid]
> 7.00	Cc1cnc(-c2cccc(-c3nn(-c4nc(C(=O)O)cs4)c(CC4CC4)c3Cc3ccc(S(N)(=O)=O)c(F)c3)c2)nc1 [Compound 217, 2-[5-(cyclopropylmethyl)-4-[(3-fluoro-4-sulfamoylphenyl)methyl]-3-[3-(5-methylpyrimidin-2-yl)phenyl]pyrazol-1-yl]-1,3-thiazole-4-carboxylicacid]
> 7.00	NS(=O)(=O)c1ccc(Cc2c(-c3cccc(-c4ccc(C(F)(F)F)cc4)c3)nn(-c3nc(C(=O)O)cs3)c2CC2CC2)cc1F [Compound 219, 2-(5-(cyclopropylmethyl)-4-(3-fluoro-4-sulfamoylbenzyl)-3-(4′-(trifluoromethyl)-[1,1′-biphenyl]-3-yl)-1H-pyrazol-1-yl)thiazole-4-carboxylic acid]
> 7.00	NS(=O)(=O)c1ccc(Cc2c(-c3cccc(-c4ccc5c(c4)CCC5)c3)nn(-c3nc(C(=O)O)cs3)c2CC2CC2)cc1F [Compound 220, 2-(5-(cyclopropylmethyl)-3-(3-(2,3-dihydro-1H-inden-5-yl)phenyl)-4-(3-fluoro-4-sulfamoylbenzyl)-1H-pyrazol-1-yl)thiazole-4-carboxylic acid]
6.00 to 7.00	NS(=O)(=O)c1ccc(Cc2c(-c3cccc(-c4ccc(C5CC5)cc4)c3)nn(-c3nc(C(=O)O)cs3)c2CC2CC2)cc1F [Compound 222, 2-(3-(4′-cyclopropyl-[1,1′-biphenyl]-3-yl)-5-(cyclopropylmethyl)-4-(3-fluoro-4-sulfamoylbenzyl)-1H-pyrazol-1-yl)thiazole-4-carboxylic acid]
> 7.00	Cc1cc(-c2cccc(-c3nn(-c4nc(C(=O)O)cs4)c(CC4CC4)c3Cc3ccc(S(N)(=O)=O)c(F)c3)c2)ccc1O [Compound 228, 2-(5-(cyclopropylmethyl)-4-(3-fluoro-4-sulfamoylbenzyl)-3-(4′-hydroxy-3′-methyl-[1,1′-biphenyl]-3-yl)-1H-pyrazol-1-yl)thiazole-4-carboxylic acid]
> 7.00	NS(=O)(=O)c1ccc(Cc2c(-c3cccc(-c4ccc(O)c(F)c4)c3)nn(-c3nc(C(=O)O)cs3)c2CC2CC2)cc1F [Compound 229, 2-(5-(cyclopropylmethyl)-3-(3′-fluoro-4′-hydroxy-[1,1′-biphenyl]-3-yl)-4-(3-fluoro-4-sulfamoylbenzyl)-1H-pyrazol-1-yl)thiazole-4-carboxylic acid]
> 7.00	Cc1ccc(C#Cc2cccc(-c3nn(-c4nc(C(=O)O)cs4)c(CC4CC4)c3Cc3ccc(S(N)(=O)=O)c(F)c3)n2)s1 [Compound 231, 2-(5-(cyclopropylmethyl)-4-(3-fluoro-4-sulfamoylbenzyl)-3-(6-((5-methylthiophen-2-yl)ethynyl)pyridin-2-yl)-1H-pyrazol-1-yl)thiazole-4-carboxylic acid]
> 7.00	Cc1ccc(C#Cc2cccc(-c3nn(-c4nc(C(=O)O)cs4)c(CCC4CC4)c3Cc3ccc(S(N)(=O)=O)c(F)c3)c2)o1 [Compound 232, 2-(5-(2-cyclopropylethyl)-4-(3-fluoro-4-sulfamoylbenzyl)-3-(3-((5-methylfuran-2-yl)ethynyl)phenyl)-1H-pyrazol-1-yl)thiazole-4-carboxylic acid]
> 7.00	Cc1cnc(C#Cc2cccc(-c3nn(-c4nc(C(=O)O)cs4)c(CCC4CC4)c3Cc3ccc(S(N)(=O)=O)c(F)c3)c2)s1 [Compound 234, 2-(5-(2-cyclopropylethyl)-4-(3-fluoro-4-sulfamoylbenzyl)-3-(3-((5-methylthiazol-2-yl)ethynyl)phenyl)-1H-pyrazol-1-yl)thiazole-4-carboxylic acid]
> 7.00	Cc1ncc(C#Cc2cccc(-c3nn(-c4nc(C(=O)O)cs4)c(CCC4CC4)c3Cc3ccc(S(N)(=O)=O)c(F)c3)c2)s1 [Compound 235, 2-(5-(2-cyclopropylethyl)-4-(3-fluoro-4-sulfamoylbenzyl)-3-(3-((2-methylthiazol-5-yl)ethynyl)phenyl)-1H-pyrazol-1-yl)thiazole-4-carboxylic acid]
> 7.00	Cc1nc(C#Cc2cccc(-c3nn(-c4nc(C(=O)O)cs4)c(CC4CC4)c3Cc3ccc(S(N)(=O)=O)c(F)c3)c2)cs1 [Compound 236, 2-(5-(cyclopropylmethyl)-4-(3-fluoro-4-sulfamoylbenzyl)-3-(3-((2-methylthiazol-4-yl)ethynyl)phenyl)-1H-pyrazol-1-yl)thiazole-4-carboxylic acid]
> 7.00	Cc1cc(C#Cc2cccc(-c3nn(-c4nc(C(=O)O)cs4)c(CC4CC4)c3Cc3ccc(S(N)(=O)=O)c(F)c3)c2)cs1 [Compound 240, 2-(5-(cyclopropylmethyl)-4-(3-fluoro-4-sulfamoylbenzyl)-3-(3-((5-methylthiophen-3-yl)ethynyl)phenyl)-1H-pyrazol-1-yl)thiazole-4-carboxylic acid]

Structure (SMILES)	pIC50
Cc1ccc(-c2cccc(-c3nn(-c4nc(C(=O)O)cs4)c(CC4CC4)c3Cc3ccc(S(N)(=O)=O)c(F)c3)c2)cc1 [Compound 198, 2-(5-(cyclopropylmethyl)-4-(3-fluoro-4-sulfamoylbenzyl)-3-(4′-methyl-[1,1′-biphenyl]-3-yl)-1H-pyrazol-1-yl)thiazole-4-carboxylic acid]	> 7.00
